# Measurements as given in patent publication US20180255776A1, “HERBICIDAL COMPOSITIONS CONTAINING 4-AMINO-3-CHLORO-6-(4-CHLORO-2-FLUORO-3-METHOXYPHENYL) PYRIDINE-2-CARBOXYLIC ACID OR A DERIVATIVE THEREOF, A TRIAZOLOPYRIMIDINE SULFONAMIDE HERBICIDE OR A DERIVATIVE THEREOF, AND GLYPHOSATE OR A DERIVATIVE THEREOF” (DOW AGROSCIENCES LLC, priority 2015, published 2018).
# Structures can show the parent of a compound that is named as a salt.
# How the values were obtained:
# Test in all cases: Post-emergence field trial, visual % weed control
# Format in all cases: in vivo
# [1] = tested on: Conyza bonariensis (hairy fleabane, ERIBO); details: Glyphosate DMA salt 960 g ai/ha
# Experimental: (§1) Treatments consisted of the methyl ester of 4-amino-3-chloro-6-(4-chloro-2-fluoro-3-methoxyphenyl)pyridine-2-carboxylic acid (Cmpd 1) and diclosulam in combination as GF-3220. […] Glyphosate dimethylammonium salt was applied as various commercial formulations containing 480 grams acid equivalent per liter (g ae/L).
# (§2) Field trials were conducted under standard field conditions. Plot sizes varied from 3-4 meters (m) wide by 5-10 m long. Treatments were applied with small plot backpack sprayers, using pressurized carbon dioxide (CO2) as propellant. Pressure varied from 30-50 pounds per square inch (PSI), with spray tips typically of a Flat Fan type applying water diluent at 100-150 liters per hectare (L/ha). Boom sizes varied from 3-4 m in width. Weed sizes varied, but all treatments were applied as post-emergence treatments to weeds from 2 leaf to 2 tiller growth stages varying from 2-15 inches in height. No additional adjuvant was mixed with the treatments applied in the field.
# (§3) The weed spectrum included, but was not limited to, Commelina benghalensis (hairy wandering Jew, COMBE), Echinochloa crus-galli (barnyardgrass, ECHCG), Euphorbia heterophylla (wild poinsettia, EPHHL), Conyza bonariensis (hairy fleabane, ERIBO), Conyza canadensis (horseweed, ERICA), Conyza sumatrensis (Guernsey fleabane, ERISU) and Ipomoea grandifolia (Corda-de-viola, IAQGR).
# (§4) The values reported are percent (%) control visually rated. The predicted percent (%) weed control was determined using Colby's equation.
# [2] = tested on: Euphorbia heterophylla (wild poinsettia, EPHHL); details: 35DAA, Glyphosate DMA salt 960 g ai/ha
# Experimental: as §1, §2, §3, §4
# [3] = tested on: Conyza sumatrensis (Guernsey fleabane, ERISU); details: Glyphosate DMA salt 1200 g ai/ha
# Experimental: as §1, §2, §3, §4
# [4] = tested on: Conyza canadensis (horseweed, ERICA); details: Glyphosate DMA salt 1200 g ai/ha
# Experimental: as §1, §2, §3, §4
# [5] = tested on: Ipomoea grandifolia (Corda-de-viola, IAQGR); details: Glyphosate DMA salt 960 g ai/ha
# Experimental: as §1, §2, §3, §4
# [6] = tested on: Commelina benghalensis (hairy wandering Jew, COMBE); details: 35DAA, Glyphosate DMA salt 960 g ai/ha
# Experimental: as §1, §2, §3, §4
smiles,measurement,setting,value
"O=C(O)CNCP(=O)(O)O [Glyphosate DMA salt, Glyphosate dimethylammonium salt]",Mean % weed control,[1]; 9DAA,10.0%
same,Mean % weed control,[1]; 14DAA,40.0%
same,Mean % weed control,[1]; 35DAA,25.0%
same,Mean % weed control,[1]; 67DAA,20.0%
same,Mean % weed control,[2],7.5%
same,Mean % weed control,[3]; 19DAA,19.0%
same,Mean % weed control,[3]; 29DAA,17.0%
same,Mean % weed control,[4]; 46DAA,25.0%
same,Mean % weed control,[4]; 62DAA,20.0%
same,Mean % weed control,[5]; 14DAA,40.0%
same,Mean % weed control,[5]; 28DAA,45.0%
same,Mean % weed control,[6],62.0%
